Assay results published in PMC7206119, “RIP1 inhibition blocks inflammatory diseases but not tumor growth or metastases” (Cell Death and Differentiation, 2019).

Tests used:
Assay in all cases: biochemical
Set-up in all cases: DiscoverX kinase panel, active-site competition binding (KINOMEscan type), percent of control at one concentration
Settings in all cases: competition binding, percent of control
PIK3CA(H1047L) = PIK3CA(H1047L) (Homo sapiens, UniProt P42336, H1047L)
ITK = ITK (Homo sapiens, UniProt Q08881)
CDK4-cyclinD1 = biological target: T1, CDK4-cyclinD1 (Homo sapiens, UniProt P11802)
T1 construct: cyclinD1
T1 sequence (P11802 whole entry): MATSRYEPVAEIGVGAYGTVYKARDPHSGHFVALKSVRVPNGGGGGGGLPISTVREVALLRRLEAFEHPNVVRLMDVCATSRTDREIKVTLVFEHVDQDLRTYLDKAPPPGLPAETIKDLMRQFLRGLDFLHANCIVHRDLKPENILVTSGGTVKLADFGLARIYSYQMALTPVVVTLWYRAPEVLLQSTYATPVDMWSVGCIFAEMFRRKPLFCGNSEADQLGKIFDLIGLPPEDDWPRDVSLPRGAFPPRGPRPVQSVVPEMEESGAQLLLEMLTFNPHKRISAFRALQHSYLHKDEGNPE
T1 sequence (P24385 whole entry partner): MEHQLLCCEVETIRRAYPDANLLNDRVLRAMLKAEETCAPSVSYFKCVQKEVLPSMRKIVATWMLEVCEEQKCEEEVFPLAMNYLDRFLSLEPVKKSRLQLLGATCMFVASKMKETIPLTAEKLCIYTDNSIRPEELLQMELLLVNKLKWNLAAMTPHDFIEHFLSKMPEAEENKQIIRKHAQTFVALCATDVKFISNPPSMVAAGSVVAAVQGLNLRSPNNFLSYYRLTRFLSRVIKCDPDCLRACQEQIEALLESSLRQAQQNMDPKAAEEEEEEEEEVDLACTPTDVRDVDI

PIK3CA(E545K) = PIK3CA(E545K) (Homo sapiens, UniProt P42336, E545K)
PAK7 = biological target: T2, PAK7 (Homo sapiens, UniProt Q9P286)
T2 construct: gene PAK5

MAP3K2 = MAP3K2 (Homo sapiens, UniProt Q9Y2U5)
ZAK = biological target: T3, ZAK (Homo sapiens, UniProt Q9NYL2)
T3 construct: gene MAP3K20
T3 sequence (Q9NYL2 whole entry): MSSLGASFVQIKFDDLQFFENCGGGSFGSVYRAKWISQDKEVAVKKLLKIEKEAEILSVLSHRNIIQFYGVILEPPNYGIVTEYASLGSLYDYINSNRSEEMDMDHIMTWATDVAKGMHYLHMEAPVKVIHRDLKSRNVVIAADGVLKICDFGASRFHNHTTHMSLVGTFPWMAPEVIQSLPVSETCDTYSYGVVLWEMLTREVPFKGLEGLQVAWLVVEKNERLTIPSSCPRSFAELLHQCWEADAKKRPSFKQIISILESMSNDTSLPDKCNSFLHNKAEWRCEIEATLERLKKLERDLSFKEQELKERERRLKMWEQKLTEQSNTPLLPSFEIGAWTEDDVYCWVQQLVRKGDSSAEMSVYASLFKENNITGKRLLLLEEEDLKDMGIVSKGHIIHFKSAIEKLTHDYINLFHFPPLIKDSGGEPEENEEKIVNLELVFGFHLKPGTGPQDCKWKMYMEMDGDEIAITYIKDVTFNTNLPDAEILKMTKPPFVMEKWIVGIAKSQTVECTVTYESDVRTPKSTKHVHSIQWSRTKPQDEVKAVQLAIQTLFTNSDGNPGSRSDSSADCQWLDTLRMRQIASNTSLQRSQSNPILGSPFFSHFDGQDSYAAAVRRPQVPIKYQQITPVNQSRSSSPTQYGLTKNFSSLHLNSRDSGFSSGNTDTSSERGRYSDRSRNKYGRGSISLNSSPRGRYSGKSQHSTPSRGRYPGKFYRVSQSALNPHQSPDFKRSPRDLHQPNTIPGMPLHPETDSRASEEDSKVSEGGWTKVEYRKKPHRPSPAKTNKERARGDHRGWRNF

MRCKA = biological target: T4, MRCKA (Homo sapiens, UniProt Q5VT25)
T4 construct: gene CDC42BPA

TESK1 = TESK1 (Homo sapiens, UniProt Q15569)
CAMK4 = CAMK4 (Homo sapiens, UniProt Q16566)
Chain of CAMK4 (Q16566 whole entry): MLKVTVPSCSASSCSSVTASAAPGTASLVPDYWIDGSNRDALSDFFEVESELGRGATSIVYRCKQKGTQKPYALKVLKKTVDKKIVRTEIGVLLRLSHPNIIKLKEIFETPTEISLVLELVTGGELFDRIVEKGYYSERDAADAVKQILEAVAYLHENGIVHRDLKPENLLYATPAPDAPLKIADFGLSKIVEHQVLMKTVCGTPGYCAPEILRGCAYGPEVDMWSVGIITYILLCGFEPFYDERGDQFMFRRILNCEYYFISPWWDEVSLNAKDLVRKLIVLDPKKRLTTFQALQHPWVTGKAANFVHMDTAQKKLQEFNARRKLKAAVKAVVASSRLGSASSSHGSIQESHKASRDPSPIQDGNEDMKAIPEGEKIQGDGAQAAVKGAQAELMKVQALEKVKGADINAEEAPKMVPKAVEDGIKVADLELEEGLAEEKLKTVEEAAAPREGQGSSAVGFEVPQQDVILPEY

DAPK3 = DAPK3 (Homo sapiens, UniProt O43293)
DDR1 = DDR1 (Homo sapiens, UniProt Q08345)
Chain of DDR1 (Q08345 whole entry): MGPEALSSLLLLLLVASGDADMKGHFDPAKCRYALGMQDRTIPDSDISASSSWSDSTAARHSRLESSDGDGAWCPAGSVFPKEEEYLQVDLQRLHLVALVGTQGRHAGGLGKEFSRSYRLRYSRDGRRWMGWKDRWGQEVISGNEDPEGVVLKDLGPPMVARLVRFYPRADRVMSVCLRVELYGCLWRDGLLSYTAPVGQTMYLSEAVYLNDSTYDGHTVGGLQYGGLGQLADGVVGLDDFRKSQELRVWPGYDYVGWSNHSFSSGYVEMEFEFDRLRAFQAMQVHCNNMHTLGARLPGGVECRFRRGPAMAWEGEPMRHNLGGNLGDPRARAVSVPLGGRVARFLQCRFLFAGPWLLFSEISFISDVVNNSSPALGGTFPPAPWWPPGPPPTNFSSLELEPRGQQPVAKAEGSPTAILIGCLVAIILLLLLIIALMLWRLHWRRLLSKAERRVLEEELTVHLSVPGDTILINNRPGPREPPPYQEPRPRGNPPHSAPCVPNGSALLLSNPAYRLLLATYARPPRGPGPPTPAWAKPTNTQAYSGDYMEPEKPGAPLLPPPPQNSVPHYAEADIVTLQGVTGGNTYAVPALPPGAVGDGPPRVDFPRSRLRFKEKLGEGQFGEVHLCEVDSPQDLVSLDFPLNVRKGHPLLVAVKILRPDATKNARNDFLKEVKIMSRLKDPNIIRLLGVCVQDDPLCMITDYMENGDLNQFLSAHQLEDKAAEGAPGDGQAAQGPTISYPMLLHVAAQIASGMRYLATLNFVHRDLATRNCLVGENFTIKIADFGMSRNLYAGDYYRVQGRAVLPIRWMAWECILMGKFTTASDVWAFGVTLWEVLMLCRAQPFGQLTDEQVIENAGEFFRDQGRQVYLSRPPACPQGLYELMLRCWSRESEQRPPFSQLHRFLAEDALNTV

CDKL2 = CDKL2 (Homo sapiens, UniProt Q92772)
ALK(C1156Y) = ALK(C1156Y) (Homo sapiens, UniProt Q9UM73, C1156Y)
PRKG2 = PRKG2 (Homo sapiens, UniProt Q13237)
FGFR4 = FGFR4 (Homo sapiens, UniProt P22455)
Chain of FGFR4 (P22455 whole entry): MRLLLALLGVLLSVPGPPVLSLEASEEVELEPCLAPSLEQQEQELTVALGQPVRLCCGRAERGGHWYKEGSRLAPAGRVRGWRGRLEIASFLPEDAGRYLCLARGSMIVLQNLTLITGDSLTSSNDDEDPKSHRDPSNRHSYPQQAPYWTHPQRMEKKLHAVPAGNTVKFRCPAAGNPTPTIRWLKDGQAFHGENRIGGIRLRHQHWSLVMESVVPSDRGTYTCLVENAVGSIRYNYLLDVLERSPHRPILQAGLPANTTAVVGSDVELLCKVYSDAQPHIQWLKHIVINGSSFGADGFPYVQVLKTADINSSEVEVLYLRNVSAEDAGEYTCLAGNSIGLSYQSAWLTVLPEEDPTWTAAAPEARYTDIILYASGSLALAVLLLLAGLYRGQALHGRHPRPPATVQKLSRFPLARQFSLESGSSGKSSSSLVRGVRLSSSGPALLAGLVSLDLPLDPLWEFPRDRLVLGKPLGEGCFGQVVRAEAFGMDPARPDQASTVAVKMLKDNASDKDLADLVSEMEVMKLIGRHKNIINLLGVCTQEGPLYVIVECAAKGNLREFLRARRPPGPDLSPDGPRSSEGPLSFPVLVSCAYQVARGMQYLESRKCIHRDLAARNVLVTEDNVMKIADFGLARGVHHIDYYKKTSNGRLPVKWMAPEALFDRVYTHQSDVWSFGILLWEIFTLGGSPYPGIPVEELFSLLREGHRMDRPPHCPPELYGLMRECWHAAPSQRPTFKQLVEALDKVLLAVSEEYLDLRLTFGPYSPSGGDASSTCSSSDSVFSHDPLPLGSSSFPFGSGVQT

FLT4 = FLT4 (Homo sapiens, UniProt P35916)
[1] = biological target: T5, ABL1(Q252H)-nonphosphorylated (Homo sapiens, UniProt P00519, Q252H)
T5 construct: nonphosphorylated

NEK9 = NEK9 (Homo sapiens, UniProt Q8TD19)
Chain of NEK9 (Q8TD19 whole entry): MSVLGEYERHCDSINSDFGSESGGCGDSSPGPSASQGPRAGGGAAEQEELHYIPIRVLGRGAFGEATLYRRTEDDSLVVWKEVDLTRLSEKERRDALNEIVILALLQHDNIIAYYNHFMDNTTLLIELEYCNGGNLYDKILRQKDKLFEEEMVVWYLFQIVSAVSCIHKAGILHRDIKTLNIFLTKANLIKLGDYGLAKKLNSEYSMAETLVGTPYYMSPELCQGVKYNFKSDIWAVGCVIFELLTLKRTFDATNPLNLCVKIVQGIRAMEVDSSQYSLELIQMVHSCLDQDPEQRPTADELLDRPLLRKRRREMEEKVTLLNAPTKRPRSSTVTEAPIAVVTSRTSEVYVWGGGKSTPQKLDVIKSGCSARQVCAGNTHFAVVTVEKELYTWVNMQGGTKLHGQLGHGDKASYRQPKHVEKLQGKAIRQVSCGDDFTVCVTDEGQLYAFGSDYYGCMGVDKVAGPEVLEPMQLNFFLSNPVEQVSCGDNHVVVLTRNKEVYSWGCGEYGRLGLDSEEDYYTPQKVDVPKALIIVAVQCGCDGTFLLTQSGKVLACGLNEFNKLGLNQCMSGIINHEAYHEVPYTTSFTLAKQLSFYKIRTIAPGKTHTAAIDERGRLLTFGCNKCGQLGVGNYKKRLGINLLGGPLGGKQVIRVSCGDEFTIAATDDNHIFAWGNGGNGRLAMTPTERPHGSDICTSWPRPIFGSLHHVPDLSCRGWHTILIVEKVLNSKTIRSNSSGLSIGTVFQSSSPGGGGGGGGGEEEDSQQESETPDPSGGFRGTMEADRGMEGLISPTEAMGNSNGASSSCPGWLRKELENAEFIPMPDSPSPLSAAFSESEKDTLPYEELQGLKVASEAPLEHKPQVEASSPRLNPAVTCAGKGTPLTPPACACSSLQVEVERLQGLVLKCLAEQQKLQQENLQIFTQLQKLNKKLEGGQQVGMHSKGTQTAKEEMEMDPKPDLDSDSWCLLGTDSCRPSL

AKT1 = AKT1 (Homo sapiens, UniProt P31749)
Chain of AKT1 (P31749 whole entry): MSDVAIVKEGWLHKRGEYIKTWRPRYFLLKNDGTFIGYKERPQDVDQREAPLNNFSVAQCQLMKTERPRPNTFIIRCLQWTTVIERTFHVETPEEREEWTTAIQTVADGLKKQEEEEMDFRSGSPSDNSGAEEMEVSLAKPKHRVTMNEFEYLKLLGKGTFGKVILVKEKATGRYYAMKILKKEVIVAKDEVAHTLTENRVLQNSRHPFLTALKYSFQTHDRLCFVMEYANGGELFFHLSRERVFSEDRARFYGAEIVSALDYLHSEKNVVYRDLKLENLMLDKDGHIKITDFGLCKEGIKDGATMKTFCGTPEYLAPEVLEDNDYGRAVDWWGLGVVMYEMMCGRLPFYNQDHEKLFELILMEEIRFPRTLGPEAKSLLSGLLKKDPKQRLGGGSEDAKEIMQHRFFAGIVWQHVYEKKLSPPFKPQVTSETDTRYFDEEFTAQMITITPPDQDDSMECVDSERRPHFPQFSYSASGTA

`COc1cc2c(cn1)N(C)C(=O)[C@@H](NC(=O)c1nc3n(n1)[C@H](c1ccccc1)CC3)CC2` [GNE684, (S)-N-((S)-7-methoxy-1-methyl-2-oxo-2,3,4,5-tetrahydro-1H-pyrido[3,4-b]azepin-3-yl)-5-phenyl-6,7-dihydro-5H-pyrrolo[1,2-b][1,2,4]triazole-2-carboxamide] was tested, and the remaining binding at 10 µM (PIK3CA(H1047L)) was 95%, the remaining binding at 10 µM (ITK) was 100% and the remaining binding at 10 µM (CDK4-cyclinD1) was 87%. The remaining binding at 10 µM (PIK3CA(E545K)) was 55%, the remaining binding at 10 µM (PAK7) was 90% and the remaining binding at 10 µM (MAP3K2) was 76%. It also gave a remaining binding at 10 µM (ZAK) of 99%, a remaining binding at 10 µM (MRCKA) of 100% and a remaining binding at 10 µM (TESK1) of 94%. It also gave a remaining binding at 10 µM (CAMK4) of 86%, a remaining binding at 10 µM (DAPK3) of 76% and a remaining binding at 10 µM (DDR1) of 100%. It also gave a remaining binding at 10 µM (CDKL2) of 95%, a remaining binding at 10 µM (ALK(C1156Y)) of 96% and a remaining binding at 10 µM (PRKG2) of 94%. For the same compound, the remaining binding at 10 µM (FGFR4) was 88%, the remaining binding at 10 µM (FLT4) was 96% and the remaining binding at 10 µM [1] was 68%. The remaining binding at 10 µM (NEK9) was 99% and the remaining binding at 10 µM (AKT1) was 74%.
